Measured values taken from ChEMBL document CHEMBL5584251, “Design and synthesis of novel and potent allosteric HIV-1 integrase inhibitors with a spirocyclic moiety” (Bioorg Med Chem Lett, 2024).

Key:
[1] = biological target: Human immunodeficiency virus type 1 integrase (Human immunodeficiency virus 1, UniProt Q7ZJM1); test: Allosteric inhibition of HIV-1 integrase by ELISA based IN-DNA assembly/Strand transfer assay
[2] = test system: Human immunodeficiency virus 1; test: Antiviral activity against wild type HIV-1 NL4-3 infected in human MT4 cells assessed as reduction in viral replication; format: functional, organism-based; details: Human immunodeficiency virus 1, NL4-3, MT4
[3] = Metabolic stability in rat liver microsome; format: ADME; details: microsomes; note: time not given here
[4] = test system: Human immunodeficiency virus 1; test: Antiviral activity against HIV-1 T125A infected in human MT4 cells assessed as reduction in viral replication; format: functional, organism-based; details: Human immunodeficiency virus 1, T125A
[5] = Metabolic stability in human liver microsome; format: ADME; details: microsomes; note: time not given here
[6] = Permeability of the compound in human Caco-2 cells; format: ADME, cell-based; details: read-out: permeability
[7] = Clearance in rat at 0.3 mg/kg, iv; format: ADME, organism-based; details: in vivo
[8] = Half life in rat at 0.3 mg/kg, iv; format: ADME, organism-based; details: in vivo
[9] = Oral bioavailability in rat at 3 mg/kg; format: ADME, organism-based; details: in vivo
[10] = MRT in rat at 0.3 mg/kg, iv; format: ADME, organism-based; details: in vivo
[11] = Volume of distribution at steady state in rat at 0.3 mg/kg, iv; format: ADME, organism-based; details: in vivo, read-out: Vdss

Sequence of Human immunodeficiency virus type 1 integrase (Q7ZJM1 whole entry): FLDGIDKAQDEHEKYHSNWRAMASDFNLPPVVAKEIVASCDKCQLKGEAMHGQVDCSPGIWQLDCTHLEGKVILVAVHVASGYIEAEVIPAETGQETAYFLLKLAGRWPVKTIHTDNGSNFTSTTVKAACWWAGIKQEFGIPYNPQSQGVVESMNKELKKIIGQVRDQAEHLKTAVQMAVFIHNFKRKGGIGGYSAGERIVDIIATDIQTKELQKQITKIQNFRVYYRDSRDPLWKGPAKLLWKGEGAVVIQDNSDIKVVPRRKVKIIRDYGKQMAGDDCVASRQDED

Row | SMILES | IC50 [1] [nM] | EC50 [2] [nM] | Stability [3] [%] | EC50 [4] [nM] | Stability [5] [%] | Papp [6] [×10⁻⁶ cm/s] | clearance [7] [mL/min/kg] | half-life [8] [h] | bioavailability [9] [%] | MRT [10] [h] | Vd [11] [L/kg]
1 | Cc1ccc(-c2c([C@H](OC(C)(C)C)C(=O)O)c(C)nc3ccccc23)cc1C | 12 |  |  |  |  |  |  |  |  |  | 
2 | Cc1ccc2c(c1C(OC(C)(C)C)C(=O)O)[C@]1(CC[C@H](C)CC1)CC2=O (some centres undefined) | 490 | 3200 |  |  |  |  |  |  |  |  | 
3 | Cc1cc(NC(=O)CC(C)C)c2c(c1C(OC(C)(C)C)C(=O)O)[C@]1(CC2)CC[C@@H](C)CC1 (some centres undefined) | 2.2 | 30 | 97 | 940 | 72 | 29 |  |  |  |  | 
4 | Cc1cc(C(=O)NCC(C)C)c2c(c1C(OC(C)(C)C)C(=O)O)[C@]1(CC2)CC[C@@H](C)CC1 (some centres undefined) | 5.7 | 33 |  | 3300 |  | 15 |  |  |  |  | 
5 | COC1C[C@]2(CC[C@@H](C)CC2)c2c1ccc(C)c2C(OC(C)(C)C)C(=O)O (some centres undefined) | 53 | 2300 |  |  |  |  |  |  |  |  | 
6 | Cc1cc(C(=O)NC(C)C)c2c(c1C(OC(C)(C)C)C(=O)O)[C@]1(CC2)CC[C@@H](C)CC1 (some centres undefined) | 20 | 110 | 96 | 2700 | 99 | 13 |  |  |  |  | 
7 | Cc1ccc2c(c1C(OC(C)(C)C)C(=O)O)[C@]1(CC[C@H](C)CC1)CC2O (some centres undefined) | 430 | 15000 |  |  |  |  |  |  |  |  | 
8 | CNC(=O)c1cc(C)c(C(OC(C)(C)C)C(=O)O)c2c1CC[C@]21CC[C@@H](C)CC1 (some centres undefined) | 160 | 560 | 98 | 9900 | 100 | 8 |  |  |  |  | 
9 | Cc1cc(C(=O)NC2CCCCC2)c2c(c1C(OC(C)(C)C)C(=O)O)[C@]1(CC2)CC[C@@H](C)CC1 (some centres undefined) | 2 | 21 | 99 | 130 | 94 | 24 |  |  |  |  | 
10 | Cc1cc(C(=O)NC2CCCCC2)c2c(c1[C@@H](OC(C)(C)C)C(=O)O)[C@]1(CC2)CC[C@@H](C)CC1 | 8.3 | 110 | 100 | 1200 | 92 | 20 |  |  |  |  | 
11 | Cc1cc(C(=O)NC2CCCCC2)c2c(c1[C@H](OC(C)(C)C)C(=O)O)[C@]1(CC2)CC[C@@H](C)CC1 | 1.4 | 7.4 | 100 | 120 | 91 | 20 | 2.67 | 4.2 | 64 | 3.6 | 0.57
12 | Cc1cc(C(=O)NC2CCCCCC2)c2c(c1C(OC(C)(C)C)C(=O)O)[C@]1(CC2)CC[C@@H](C)CC1 (some centres undefined) | 1.8 | 21 | 87 | 580 | 83 | 30 |  |  |  |  | 
13 | Cc1cc(C(=O)N(C)C)c2c(c1C(OC(C)(C)C)C(=O)O)[C@]1(CC2)CC[C@@H](C)CC1 (some centres undefined) | 1800 | 2600 | 94 | > 6000 | 97 | 7 |  |  |  |  | 
14 | Cc1ccc2c(c1C(OC(C)(C)C)C(=O)O)[C@]1(CC2)CC[C@@H](C)CC1 (mixture of isomers) | 54 | 5300 | 51 | > 6000 | 57 | 48 |  |  |  |  | 
15 | Cc1ccc2c(c1C(OC(C)(C)C)C(=O)O)[C@]1(CCC2)CC[C@@H](C)CC1 (mixture of isomers) | 50 | 4000 |  |  |  |  |  |  |  |  | 
16 | Cc1cn([C@H]2C[C@H](N=[N+]=[N-])[C@@H](CO)O2)c(=O)[nH]c1=O [ZIDOVUDINE] |  | 29.9 |  | 38.9 |  |  |  |  |  |  | 
